Experimental data taken from article PMC9655618 (Cancers, 2022).

How the values were obtained:
BT-549 cells = test: MTT cell viability assay; assay type: cell-based, human; details: Homo sapiens, BT-549, 72 h, 10%FBS growth media
Procedure: (§1) Straightforward, the tetrazolium salt 3-(4,5-methyltiazol-2yl-)-2,5diphenyl-tetrazolium bromide (MTT) (Applichen, Darmstadt, Germany) was added to cells, incubated for 2–4 h at 37 °C, and lysed in 10% SDS.

Hs-578T cells = test: MTT cell viability assay; assay type: cell-based, human; details: Homo sapiens, Hs-578T, 72 h, 10%FBS growth media
Procedure: as §1

Ishikawa cells = test: MTT cell viability assay; assay type: cell-based, human; details: Homo sapiens, Ishikawa, read-out: IC50 (μM) ISHIKAWA, 72 h, 10%FBS growth media
Procedure: as §1

MCF-10A cells = test: MTT cell viability assay; assay type: cell-based, human; details: Homo sapiens, MCF-10A, 72 h, 10%FBS growth media
Procedure: as §1

MCF-7 cells = test: MTT cell viability assay; assay type: cell-based, human; details: Homo sapiens, MCF7, 72 h, 10%FBS growth media
Procedure: as §1

MCF-7/BUS cells = test: MTT cell viability assay; assay type: cell-based, human; details: Homo sapiens, MCF7/BUS; 72 h, 10%FBS growth media, MTT; read-out: IC50 (μM) MCF-7/BUS
Procedure: as §1

MDA-MB-231 cells = test: MTT cell viability assay; assay type: cell-based, human; details: Homo sapiens, MDA-MB-231, 72 h, 10%FBS growth media
Procedure: as §1

SK-BR-3 cells = test: MTT cell viability assay; assay type: cell-based, human; details: Homo sapiens, SK-BR-3, 72 h, 10%FBS growth media
Procedure: as §1

T47D cells = test: MTT cell viability assay; assay type: cell-based, human; details: Homo sapiens, T47D, 72 h, 10%FBS growth media
Procedure: (§2) Straightforward, the tetrazolium salt 3-(4,5-methyltiazol-2yl-)-2,5diphenyl-tetrazolium bromide (MTT) (Applichen, Darmstadt, Germany) was added to cells, incubated for 2–4 h at 37 °C, and lysed in 10% SDS. The mitochondrial metabolization of the tetrazolium salt was determined by the analysis of the optical density at 595 nm, measured with the iMark microplate Reader (Bio–Rad, Irvine, CA, USA).

VERO cells = test: MTT cell viability assay; assay type: cell-based, monkey; details: Primates, Vero, 72 h, 10%FBS growth media
Procedure: as §1

PBMC = test: MTT cell viability assay; assay type: cell-based; details: Homo sapiens, 72 h, 10%FBS growth media
Procedure: as §1

[1] = test system: STAT3 transcriptional activity in HEK293 cells; test: IL6-induced STAT3 transcriptional activity, Renilla reporter HEK-293 cells; details: hIL6 10 ng/ml
[2] = test system: ER+ cancer cells (i.e., MCF-7, MCF-7/BUS, T47D and Ishikawa cells); test: MTT cell viability, summary over ER+ cancer cells; assay type: cell-based; details: Homo sapiens, read-out: IC50, viability of ER+ cancer cells, E2-non-depleted cells, text summary of Table 1 over MCF-7, MCF-7/BUS
Procedure: as §2

Molecule	IC50 (BT-549 cells) [µM]	IC50 (Hs-578T cells) [µM]	IC50 (Ishikawa cells) [µM]	IC50 (MCF-10A cells) [µM]	IC50 (MCF-7 cells) [µM]	IC50 (MCF-7/BUS cells) [µM]	IC50 (MDA-MB-231 cells) [µM]	IC50 (SK-BR-3 cells) [µM]	IC50 (T47D cells) [µM]	IC50 (VERO cells) [µM]	IC50 (PBMC) [µM]	maximal luciferase activity or Emax [1] [fold induction]	IC50 [2] [nM]
COc1cccc2c1C(=O)c1c(O)c3c(c(O)c1C2=O)C[C@@](O)(C(=O)CO)C[C@@H]3O[C@H]1C[C@H](N)[C@H](O)[C@H](C)O1 [DOXO, doxorubicin, reference compound]	0.19 ± 0.04	0.37 ± 0.05	0.09 ± 0.03	0.09 ± 0.01	0.07 ± 0.01	0.05 ± 0.02	0.25 ± 0.07	0.04 ± 0.01	0.15 ± 0.02	2.62 ± 0.24	1.47 ± 0.69	–	–
hIL-6: pure agonist hIL6 (10 ng/mL) used to induce STAT3 transcriptional activity	–	–	–	–	–	–	–	–	–	–	–	10.08 ± 2.41	–
COc1ccccc1C1=CC(O)(c2ccc([N+](=O)[O-])cc2)N(Cc2ccccc2)C1=O (stereo not shown) [compound 49, 1-benzyl-5-hydroxy-3-(2-methoxyphenyl)-5-(4-nitrophenyl)-1H-pyrrol-2(5H)-one]	> 10	> 10	4.82 ± 1.84	0.31 ± 0.03	3.47 ± 1.12	5 ± 1.79	7.94 ± 2.07	> 10	> 10	–	–	–	< 10000
COc1ccc(C2=CC(O)(c3ccc([N+](=O)[O-])cc3)N(Cc3ccccc3)C2=O)cc1 (stereo not shown) [compound 43, 1-benzyl-5-hydroxy-3-(4-methoxyphenyl)-5-(4-nitrophenyl)-1H-pyrrol-2(5H)-one]	6.23 ± 3.48	> 10	3.47 ± 0.94	–	6.54 ± 0.41	2.85 ± 1.24	> 10	2.16 ± 0.05	8.57 ± 0.43	–	–	–	< 10000
